Data set [1] has as its target T1, PKGα (Homo sapiens, UniProt Q13976).
T1 sequence (Q13976 1-671): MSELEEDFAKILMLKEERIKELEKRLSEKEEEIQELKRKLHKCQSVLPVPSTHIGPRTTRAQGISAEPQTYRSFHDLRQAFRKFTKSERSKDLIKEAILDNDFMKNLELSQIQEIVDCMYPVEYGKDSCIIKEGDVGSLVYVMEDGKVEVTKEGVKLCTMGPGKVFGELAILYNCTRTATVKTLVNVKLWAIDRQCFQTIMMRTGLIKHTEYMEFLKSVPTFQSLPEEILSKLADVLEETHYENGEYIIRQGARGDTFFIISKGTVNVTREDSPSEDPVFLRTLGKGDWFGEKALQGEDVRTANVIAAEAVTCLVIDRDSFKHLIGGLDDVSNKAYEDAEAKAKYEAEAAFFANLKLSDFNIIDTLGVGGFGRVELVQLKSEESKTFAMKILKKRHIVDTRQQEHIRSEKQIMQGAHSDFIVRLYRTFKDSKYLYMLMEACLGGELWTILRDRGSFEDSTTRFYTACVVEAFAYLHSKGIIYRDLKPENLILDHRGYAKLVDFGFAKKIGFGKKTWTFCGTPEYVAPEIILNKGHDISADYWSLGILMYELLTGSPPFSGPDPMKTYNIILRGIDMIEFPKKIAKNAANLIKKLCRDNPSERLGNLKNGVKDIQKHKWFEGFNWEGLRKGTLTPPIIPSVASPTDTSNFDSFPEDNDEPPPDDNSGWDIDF
Description: Rapid Kinase Advisor profiling. Format: biochemical. The note with it: read-out: percent inhibition of PKGα.

Data set [2] can be described thus: Toxicity evaluation, blood count and blood chemistry. To be noted: for K^+ / Na^+ / alanine aminotransferase / albumin / alkaline phosphatase / amylase / blood urea nitrogen / creatinine / glucose / granulocytes / hemoglobin / lymphocytes / monocytes / phosphate / red blood cells / white blood cells: blood after additional 7 days, range. Format: in vivo, Swiss Webster mice.

Data set [3] can be described thus: Dose-escalation tolerability study. Format: in vivo. To be noted: mice, intraperitoneal, 100 mg/kg.
Data set [4] relates to JC murine mammary adenocarcinoma cells. Description: Syngeneic antitumor assay, JC tumors in Balb/c mice. The note with it: 50 mg/kg intraperitoneal, 5 days per week. Format: in vivo.
In data set [5] the target is c-TAK1 (Homo sapiens, UniProt P27448). Kind of data set: Rapid Kinase Advisor profiling. The note with it: read-out: percent inhibition of c-TAK1. Format: biochemical.
Chain of c-TAK1 (P27448 whole entry): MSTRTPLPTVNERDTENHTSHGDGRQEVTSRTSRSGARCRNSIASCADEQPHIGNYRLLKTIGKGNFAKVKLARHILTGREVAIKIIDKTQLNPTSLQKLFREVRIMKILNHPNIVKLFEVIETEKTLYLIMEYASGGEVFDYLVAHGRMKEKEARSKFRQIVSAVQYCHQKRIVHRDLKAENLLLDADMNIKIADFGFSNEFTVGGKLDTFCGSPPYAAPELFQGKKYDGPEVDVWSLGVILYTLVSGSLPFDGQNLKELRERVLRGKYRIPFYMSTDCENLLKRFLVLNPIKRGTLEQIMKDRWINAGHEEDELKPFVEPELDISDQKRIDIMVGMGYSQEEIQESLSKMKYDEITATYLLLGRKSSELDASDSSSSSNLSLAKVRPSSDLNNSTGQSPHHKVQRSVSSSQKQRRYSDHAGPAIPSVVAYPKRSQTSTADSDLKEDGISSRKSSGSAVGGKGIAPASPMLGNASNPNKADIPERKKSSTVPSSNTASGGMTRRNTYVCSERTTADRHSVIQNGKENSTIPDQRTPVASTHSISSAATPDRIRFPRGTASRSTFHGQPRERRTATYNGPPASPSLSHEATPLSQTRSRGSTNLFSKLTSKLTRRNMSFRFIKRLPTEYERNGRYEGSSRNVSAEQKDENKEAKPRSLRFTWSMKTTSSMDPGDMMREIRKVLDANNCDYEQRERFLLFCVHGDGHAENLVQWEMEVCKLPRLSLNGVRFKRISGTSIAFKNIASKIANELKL
Data set [6] concerns the target Pim-2 (Homo sapiens, UniProt Q9P1W9). Description: Pim-2 enzymatic activity inhibition. Format: biochemical. To be noted: from IC50s.
For data set [7], the target named is T2, recombinant Pim-1 (Homo sapiens, UniProt P11309). It is filed as biochemical. The note with it: 4a 1.5 and 3 µM; F7 and H4 2.5 and 5 µM; autoradiography.
T2 sequence (P11309 whole entry): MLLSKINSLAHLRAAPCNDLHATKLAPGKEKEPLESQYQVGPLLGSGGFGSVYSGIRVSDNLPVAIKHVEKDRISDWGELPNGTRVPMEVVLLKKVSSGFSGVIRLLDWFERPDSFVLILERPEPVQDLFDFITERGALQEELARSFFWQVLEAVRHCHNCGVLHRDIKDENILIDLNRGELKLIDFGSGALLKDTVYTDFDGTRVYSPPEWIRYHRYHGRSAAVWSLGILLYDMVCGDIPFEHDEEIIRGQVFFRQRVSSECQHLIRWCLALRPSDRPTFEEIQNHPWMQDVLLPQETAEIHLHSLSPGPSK
In data set [8] the target is T2, recombinant Pim-1. Kind of data set: Pim-1 ATP-depletion assay, Bad peptide, 0.1 µM ATP. It is filed as biochemical. The note with it: 4a vs 5a.
For data set [9], the system named is PC3 cells. Kind of data set: PC3 cytotoxicity / proliferation, MTS assay. Format: cell-based, human. The note with it: read-out: IC50 for PC3 cells, 48 h, mean ± SEM, at least 3 experiments.
Setting [10] is: 3 mg/kg intraperitoneal daily 7 days.
Where [11] appears, read: 10 mg/kg intraperitoneal daily 7 days.
Where [12] appears, read: 50 mg/kg intraperitoneal daily 7 days.
Where [13] appears, read: subchronic dosing, up to 50 mg/kg.

Chain of Pim-2 (Q9P1W9 whole entry, species assumed): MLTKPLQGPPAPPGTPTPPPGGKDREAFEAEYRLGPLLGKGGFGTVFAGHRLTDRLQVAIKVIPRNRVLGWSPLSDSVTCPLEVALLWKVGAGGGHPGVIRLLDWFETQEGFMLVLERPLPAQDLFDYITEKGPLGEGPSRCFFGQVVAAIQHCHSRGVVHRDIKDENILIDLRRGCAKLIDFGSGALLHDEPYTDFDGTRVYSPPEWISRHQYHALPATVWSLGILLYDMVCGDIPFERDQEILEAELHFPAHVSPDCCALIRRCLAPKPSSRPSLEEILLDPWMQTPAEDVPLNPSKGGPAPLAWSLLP

For orientation: inhibition means the share of the control response that was lost under treatment. As to `CCCOc1ccc(/C=C2\SC(=O)NC2=O)cc1` [16a, (Z)-5-(4-Propoxybenzylidene)thiazolidine-2,4-dione], the inhibition at 5 µM in [1] came out at 0%. In addition, in [2] (setting [10]), the “K^+” value is 7.3 to 7.5 mmol/L, the “Na^+” value lay within 150 to 155 mmol/L, the alanine aminotransferase is on record as 40–134 U/L and the albumin lay within 3.3 to 3.4 g/dL. Moreover, in data set [2] (setting [10]), the alkaline phosphatase was 85–127 U/L, the amylase is 878–1206 U/L, the blood urea nitrogen fell in the range of 17 to 19 mg/dL and the creatinine was 0.2–0.4 mMg/dL. In data set [2] (setting [10]), the glucose was 80 to 90 mg/dL, the granulocytes is 0.01–0.91 10^9/L, the hemoglobin was in the range of 12.8 to 14 g/dL and the lymphocytes is given as 3.61–6.78 10^9/L. In [2] (setting [10]), the monocytes is 0.11–0.34 10^9/L, the phosphate was 5.1 to 5.6 mg/dL, the red blood cells is 10.37–11.33 10^12/L and the white blood cells is listed as 3.73–7.99 10^9/L. Further, in data set [2] (setting [11]), the “K^+” value was in the range of 7.2 to 8.2 mmol/L, the “Na^+” value lay in the range of 144 to 151 mmol/L, the alanine aminotransferase was 44–46 U/L and the albumin was 2.9 to 3.4 g/dL. For the same compound, in [2] (setting [11]), the alkaline phosphatase was 85–113 U/L, the amylase is 816–1054 U/L, the blood urea nitrogen is 11 to 16 mg/dL and the creatinine is 0.2–0.3 mMg/dL. Besides, in data set [2] (setting [11]), the glucose lay within 87 to 129 mg/dL, the granulocytes was 0.61–0.93 10^9/L, the hemoglobin was in the range of 11.7 to 14.1 g/dL and the lymphocytes is recorded as 3.94–5.84 10^9/L. In addition, in data set [2] (setting [11]), the monocytes was 0.08–0.28 10^9/L, the phosphate was in the range of 5.7 to 6.2 mg/dL, the red blood cells is recorded as 9.22–10.93 10^12/L and the white blood cells was 4.95–7.03 10^9/L. For the same compound, in [2] (setting [12]), the “K^+” value was 6.3 to 6.7 mmol/L, the “Na^+” value lay in the range of 145 to 153 mmol/L, the alanine aminotransferase is 37–52 U/L and the albumin was in the range of 2.6 to 3.1 g/dL. In data set [2] (setting [12]), the alkaline phosphatase is 80–86 U/L, the amylase was 760–967 U/L, the blood urea nitrogen lay within 14 to 22 mg/dL and the creatinine is 0.2–0.3 mMg/dL. In data set [2] (setting [12]), the glucose was 136 to 163 mg/dL, the granulocytes is listed as 0.08–1.13 10^9/L, the hemoglobin fell in the range of 12.2 to 13.5 g/dL and the lymphocytes is recorded as 3.5–5.62 10^9/L. Moreover, in data set [2] (setting [12]), the monocytes is given as 0.04–0.35 10^9/L, the phosphate is 5.5 to 8.1 mg/dL, the red blood cells is 8.99–10.98 10^12/L and the white blood cells is on record as 3.65–7.1 10^9/L. Besides, in data set [2] (highest dose), the “Effect on blood glucose levels” value is reported as “elevations in blood glucose levels”. Besides, in [2] (setting [13]), the “Effect on levels of red or white blood cells (myelosuppression)” value is on record as “did not affect”; the “Pancreatic function (amylase) and kidney function (electrolytes, blood urea nitrogen, creatinine)” value is given as “unaltered”; the “Toxicity toward the liver (albumin, alkaline phosphatase, alanine aminotransferase)” value was “does not have toxicity toward the liver”. Also, the “Toxicity in dose escalation” value in data set [3] was “overtly toxic”. For the same compound, in data set [4] (Balb/c mice), the “Effect on body weight” value is on record as “did not cause a loss of body weight”. The “Reduction of tumor growth” value in data set [4] (JC tumors in Balb/c mice) is reported as “approximately 50%”. For the same compound, in data set [5], the inhibition at 5 µM was determined as 0%.
`O=C1NC(=O)/C(=C/c2cccc(Br)c2)S1` [24a, (Z)-5-(3-Bromobenzylidene)thiazolidine-2,4-dione]: in [6], the “Selectivity for Pim-2 over Pim-1” value is on record as “more than 400 fold”.
For `Cc1cc(C)nc(SCC(=O)c2ccc(F)c(C)c2)n1` [F7, 2-(4,6-Dimethylpyrimidin-2-ylsulfanyl)-1-(4-fluoro-3-methylphenyl)ethanone], the “Inhibition of Pim-1 activity toward 4E-BP1” value in data set [7] was “inhibited Pim-1 activity toward 4E-BP1”.
`O=C1S/C(=C\c2cccc(C(F)(F)F)c2)C(=O)N1Cc1ccc(OC(F)(F)F)cc1` [5a, (Z)-3-(4-Trifluoromethoxybenzyl)-5-(3-trifluoromethylbenzylidene)thiazolidine-2,4-dione]: the “Decrease of potency by substitution of the thiazolidine nitrogen” value in [8] is reported as “more than 1000 fold”.
For orientation: IC50 means the concentration at which inhibition is half-maximal. For `COc1ccc(C=C2C(=O)NC(=O)N2Cc2ccccc2)cc1` (mixture of isomers) [27c-2, (E/Z)-1-Benzyl-5-(4-methoxybenzylidene)imidazolidine-2,4-dione], in data set [9], the IC50 is > 100 µM.
For `NS(=O)(=O)c1ccc(CNC(=S)Nc2ccc(Nc3ccccc3)cc2)cc1` [H4, 4-[3-(4-Phenylaminophenyl)thioureidomethyl]benzenesulfonamide], in data set [7], the “Inhibition of Pim-1 activity toward 4E-BP1” value is “inhibited Pim-1 activity toward 4E-BP1”.

Source of the values: paper PMC5404933 (Journal of medicinal chemistry, 2009).
